{
  "source": "patent US12209142B2",
  "about": "“SARS-CoV-2 epitope-targeted peptide immunostimulants” (Institute for Systems Biology, priority 2020, dated 2025)",
  "key": {"[1]": {"biological_target": "T1, full-length recombinant MrkA protein (Klebsiella pneumoniae, UniProt P12267)", "T1 construct": "purchased MyBiosource MBS1248970", "T1 sequence (P12267 23-202)": "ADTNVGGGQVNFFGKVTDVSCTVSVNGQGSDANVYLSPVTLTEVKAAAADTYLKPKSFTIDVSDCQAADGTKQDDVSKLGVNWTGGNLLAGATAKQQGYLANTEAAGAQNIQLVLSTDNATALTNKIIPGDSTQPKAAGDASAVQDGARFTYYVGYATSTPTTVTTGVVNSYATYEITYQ", "experiment": "Sandwich ELISA of PCC binding to full-length MrkA", "conditions": "sandwich ELISA, biotinylated PCC immobilized", "method": "The screen yielded 26 hits (Table 2) that were sequenced, scaled up, and tested for binding to full-length recombinant MrkA in solution by single-point sandwich Enzyme-linked immunoassays (ELISAs) (FIG. 8). HPraGly is present before X1 in each peptide and Az4 follows X5 in each peptide.\nAn alanine scan was performed to establish which residues of cy(LLFFF) (SEQ ID NO:5) contribute most to MrkA binding. In this assay, a sandwich ELISA is used to quantify the affinity of several cy(LLFFF) (SEQ ID NO:5) analogues, in which one residue is substituted with an alanine, towards full-length MrkA protein. The ELISA results in FIG. 4 show lower signal for every alanine-substituted cy(LLFFF) (SEQ ID NO:5) analogue compared to unmodified cy(LLFFF) (SEQ ID NO:5), establishing that the native compound has the highest affinity. […] Thus, these two C-terminal phenylalanine residues (FIG. 3A, arrows in inset) play critical roles in MrkA binding, and are targets for modifications to improve binding. Another important detail of these alanine scan results is a strong dependence of MrkA binding on the residue position, independent of residue type. For example, cy(LLAFF) (SEQ ID NO:9) and cy(LLFFA) (SEQ ID NO:11) have very different binding affinities, despite having the same phenylalanine-to-alanine substitution.\nIn vitro ELISA assays. ELISA assays for MrkA-binding and epitope selectivity were performed on clear NeutrAvidin Coated High Capacity Plates (ThermoFisher, 15507). The buffer used for all washes and to dissolve all compounds was TBST+0.1% BSA (TBS+0.05% Tween 20+0.1% BSA, pH 7.3) and, unless otherwise stated, steps were conducted at room temperature. Each wash involved a brief 20 s agitation, and all conjugation, blocking, and incubation steps were performed with gentle agitation over the entire stated time period. The general procedure for an ELISA assay was: wash 3×200 μL/well, conjugate with 2 μM of biotinylated compound for 2 h at room temperature (100 μL/well), wash 3×200 μL/well, blocked overnight in 5 wt % milk at 4° C., wash […] with wash buffer, incubate with titrated compound (e.g., MrkA or epitope) for 1 h, […], incubate with primary antibody […] for 1 h (100 μL/well), wash 3×200 μL/well, incubate with 1:2,000 anti-rabbit secondary antibody-horseradish peroxidase conjugate (Cell signaling Technologies, 7074S) for 1 h, 3×200 μL/well, develop with the Microwell Peroxidase Substrate System (2-C) (SeraCare, 5120-0047) using 100 μL/well for 1-40 minutes, and quench using 1 M H2SO4 (aq.) at 100 μL/well. For MrkA binding assays, biotinylated PCCs were conjugated to the well surface, recombinant MrkA with an N-terminal 6×His-SUMO-tag (MyBiosource, MBS1248970) was titrated at the desired concentration, and the primary antibody was His-tag antibody, pAb, Rabbit (Genscript, A00174) at a 1:5,000 dilution. For epitope selectivity assays, biotinylated SynEps were conjugated, DNP-conjugated AR-PCCs were titrated at a desired concentration, and the primary antibody was anti-DNP antibody produced in Rabbit (Sigma-Aldrich, D9656) at a 1:8,000 dilution. […] For binding tests in the context of mouse sera, the “titrated compound” described in the steps above was dispersed in a solution containing the desired concentration of mouse serum."}, "[2]": {"test_system": "MrkA-expressing K. pneumoniae cells", "experiment": "Whole-cell ELISA of biotinylated PCC binding"}, "[3]": {"conditions": "strain BAA 1705, PCC 5 μM or lower"}},
  "note": "pEC50: −log10 of the molar value. “Also recorded” adds a separate entry of the source. Where a SMILES comes first, the peptide text is derived from it. Bridges are numbered along the chain shown (N, C = ends). Triazole bridges read from a SMILES are 1,4-linked. [ ]: non-standard residue; d: D form. The star is where a group is joined. Biotin = O=C1N[C@H]2[C@H](CS[C@H]2CCCCC(=O)*)N1; Lys(N3) = [N-]=[N+]=NCCCC[C@H](N)C(=O)O; PEG5 = NCCOCCOCCOCCOCCOCCC(=O)O; Pra = C#CC[C@H](N)C(=O)O",
  "data": [
    {"smiles": "CC(C)C[C@@H]1NC(=O)[C@@H](NC(=O)CCOCCOCCOCCOCCOCCNC(=O)CCCC[C@@H]2SC[C@@H]3NC(=O)N[C@@H]32)Cc2cn(nn2)CCCC[C@@H](C(N)=O)NC(=O)[C@H](Cc2ccccc2)NC(=O)[C@H](Cc2ccccc2)NC(=O)[C@H](Cc2ccccc2)NC(=O)[C@H](CC(C)C)NC1=O", "note": "[cy(LLFFF)] ({Biotin-PEG5}-[Pra]LLFFF[Lys(N3)]-NH2; triazole 1-7; N-terminus and C-terminus assumed)", "values": [
      {"measurement": "pEC50", "setting": "[1]", "result": 7.30},
      {"measurement": "whole-cell ELISA signal, MrkA-knockout KPPR1", "setting": "[2]; MrkA/B/C knockout KPPR1", "result": "ELISA intensities comparable to baseline"},
      {"measurement": "whole-cell ELISA signal, K. pneumoniae BAA 1705 and BAA 2146", "setting": "[2]; biotinylated PCC at 5 μM", "result": "high absorbance; also recorded: strong signal; also recorded: binds two strains of MrkA-expressing K. pneumoniae cells with excellent selectivity versus E. coli and S. typhimurium"},
      {"measurement": "whole-cell ELISA signal at high PCC concentration, LB or G-CAA", "setting": "[2]; strain BAA 1705, 50 μM PCC", "result": "strong and comparable ELISA signals"},
      {"measurement": "whole-cell ELISA 450 nm absorbance, cells cultured in G-CAA (high MrkA)", "setting": "[2]; [3]", "result": "strong absorbances"},
      {"measurement": "whole-cell ELISA 450 nm absorbance, cells cultured in LB (low MrkA)", "setting": "[2]; [3]", "result": "near-baseline absorbances"},
      {"measurement": "whole-cell ELISA signal, wild type KPPR1", "setting": "[2]; wild type KPPR1 (ATCC 43816), G-CAA media, 5 μM down to 5 nM", "result": "strong signals; also recorded: binds wild type MrkA-expressing KPPR1 cells"}
    ]}
  ]
}
